Experimental data published in patent publication US8414989B2, “Cyclodextrin compositions, articles, and methods” (Cellresin Technologies, LLC, priority 2011, dated 2013).

How the values were obtained:
Type in all cases: physicochemical
[1] = Example 8: 1-MCP headspace release from cured coating with varying amounts of liquid water; conditions: 4.0 wt-% 1-MCP/c/α-CD coating, 5 cm x 10 cm, 250 mL bottle
Description: A 4.0 wt-% 1-MCP/c/α-CD coating blend was made according to the technique of Example 3. A 20 cm by 20 cm polyethylene extrusion coated paper sheet was coated with the mixture using the technique of Example 2. A paper cutter was used to cut nine, 5 cm by 10 cm rectangles from the sheet. The cut, coated rectangles were passed by hand about 10 cm beneath a medium pressure mercury arc lamp operating at 79 watts per cm. After 1.5 seconds exposure to the lamp, the sample was removed. The cured sample was allowed to sit on a laboratory bench overnight coating side down.
Each cured sample was placed in a 250 mL serum bottle. Each bottle was sealed with a TEFLON® faced silicone septum. The amount of liquid water that would, in vapor form, correspond to 100% relative humidity (RH) at 20° C. (provided at http://hyperphysics.phy-astr.gsu.edu/hbase/kinetic/vappre.html#c) is 17.3 g/m^3, or 17.3 g per 1000 L. The density of water at 20° C. is 0.9982 g/mL. Thus, at 20° C., 4.3 μL, of liquid water added to an enclosed volume of 250 mL and containing no other water will vaporize to give 100% RH. Our laboratory facility temperature was 20° C.±5° C.
Three of the bottles were injected with 10 μL, of deionized water, three with 20 μL of deionized water, and three with 50 μL of deionized water. […] The headspace of each bottle was analyzed for 1-MCP at 2 hours, 4 hours, 8 hours, 24 hours, and 48 hours after the injection of water, wherein the headspace analysis was conducted using the analytical technique employed in Example 3.

[2] = Control Example A: dissociation of 1-MCP from supplied 1-MCP/c/α-CD powder as a function of added water; conditions: for Headspace concentration of 1-MCP: 0.1 g 1-MCP/c/α-CD powder, 250 mL bottle, shaken 1 hour, about 20 C
Procedure: A sample of 1-MCP/c/α-CD powder was obtained (AgroFresh of Spring House, Pa.). According to the supplier's specification sheet, 1-MCP was 4.7 wt % of α-CD or 88.7 wt % 1-MCP complex based on a theoretical 1:1 molar ratio of 1-MCP to α-CD; this corresponds to a resulting headspace concentration of 8,600 ppm. A series of tests were conducted to measure the dissociation of 1-MCP from the supplied 1-MCP/c/α-CD as a function of added water. First, 0.1 g aliquots of the supplied 1-MCP/c/α-CD powder were added to each of 5, 250 mL bottles, which were then capped with TEFLON® faced septa. Varying amounts of water were added to the bottles by syringe, and then the bottles were mechanically shaken for one hour, followed by headspace measurement for 1-MCP according to the procedure of Example 3. The amounts of water added per 0.1 g of the supplied 1-MCP/c/α-CD complex, and the resulting headspace measurements after 1 hour at about 20 C, are shown in Table 6.
A polynomial regression was used to calculate the dissociation at 100% RH in the headspace for the five samples of Table 6 (i.e., 4.3 milligrams water per 250 mL volume, see Example 8 for source and calculation of this information). The calculated amount of dissociated 1-MCP at 100% RH was 18 wt-%.

[3] = Example 11: 1-MCP headspace release from UV coating on polyethylene coated paperboard; conditions: UV coating with 1-MCP/c/α-CD on PE coated paperboard, 5 cm x 5 cm, 250 mL jar, 200 μL water, average
Procedure: A 20 mL bottle was charged with 9.6 g of UV curable coating formulation (VP 10169/60 MF-2NE, obtained from Verga GmbH of Aschau am Inn, Germany). Then 0.4 g of 1-MCP/c/α-CD (4.7% 1-MCP, obtained from AgroFresh of […], Pa.) was added to the bottle. The bottle was firmly capped and the components mixed by shaking the bottle by hand until the contents appeared to be uniformly dispersed, providing a UV curable mixture.
A polyethylene coated paperboard was prepared by heat laminating a 30 μm thick polyethylene film to a 20 cm×20 cm section of 600 μm thick solid bleached sulfate (SBS) paperboard (obtained from Graphic Packaging International of_) using a heated vacuum press. A rubber ink roller was used to deliver a thin (nominally 0.3 μm) coating of the UV curable mixture to the laboratory prepared polyethylene coated paperboard, using the technique of Example 2. A paper cutter was used to cut a 20 cm by 10 cm rectangle of the coated portion of the board. The coated rectangle was passed by hand about 10 cm beneath a medium pressure mercury arc lamp operating at 79 watts per cm. After 1.5 seconds exposure to the lamp, the sample was removed. The cured sample was allowed to sit on a laboratory bench overnight, coating side down.
After curing, 5 cm by 5 cm sections were cut from the 20 cm by 10 cm rectangles. Each section was individually placed into a 250 mL jar (tall clear WM SEPTA-JAR™, Fisher Scientific P/N 05-719-452; obtained from Fisher Scientific of Waltham, Mass.) equipped with a TEFLON™ faced septum (Fisher Scientific P/N 14-965-84). Each jar was injected with 200 μL of deionized water. […] Jar headspace was analyzed for 1-MCP at […] time periods (0.17, 0.5, 1, 2, 4 and 7 hours) after the injection of water, using the analytical technique employed in Example 3. The results exemplify that greater amounts of 1-MCP were released into the headspace from the UV coated substrate with increasing time.

## CC1=CC1 [1-MCP, 1-methylcyclopropene]
[1]; 10 μL H2O, 2 hr
  Headspace concentration of 1-MCP, average: 1.3 ppm (v/v)
[1]; 10 μL H2O, 4 hr
  Headspace concentration of 1-MCP, average: 2.5 ppm (v/v)
[1]; 10 μL H2O, 8 hr
  Headspace concentration of 1-MCP, average: 3.8 ppm (v/v)
[1]; 10 μL H2O, 24 hr
  Headspace concentration of 1-MCP, average: 7.1 ppm (v/v)
[1]; 10 μL H2O, 48 hr
  Headspace concentration of 1-MCP, average: 10.0 ppm (v/v)
[1]; 20 μL H2O, 2 hr
  Headspace concentration of 1-MCP, average: 2.6 ppm (v/v)
[1]; 20 μL H2O, 4 hr
  Headspace concentration of 1-MCP, average: 5.8 ppm (v/v)
[1]; 20 μL H2O, 8 hr
  Headspace concentration of 1-MCP, average: 9.2 ppm (v/v)
[1]; 20 μL H2O, 24 hr
  Headspace concentration of 1-MCP, average: 15.7 ppm (v/v)
[1]; 20 μL H2O, 48 hr
  Headspace concentration of 1-MCP, average: 20.5 ppm (v/v)
[1]; 50 μL H2O, 2 hr
  Headspace concentration of 1-MCP, average: 8.7 ppm (v/v)
[1]; 50 μL H2O, 4 hr
  Headspace concentration of 1-MCP, average: 18.6 ppm (v/v)
[1]; 50 μL H2O, 8 hr
  Headspace concentration of 1-MCP, average: 30.8 ppm (v/v)
[1]; 50 μL H2O, 24 hr
  Headspace concentration of 1-MCP, average: 55.3 ppm (v/v)
[1]; 50 μL H2O, 48 hr
  Headspace concentration of 1-MCP, average: 63.0 ppm (v/v)
[2]; 0.25 g H2O
  Headspace concentration of 1-MCP: 3,050 ppm (v/v)
[2]; 0.5 g H2O
  Headspace concentration of 1-MCP: 4,750 ppm (v/v)
[2]; 1.0 g H2O
  Headspace concentration of 1-MCP: 6,850 ppm (v/v)
[2]; 2.0 g H2O
  Headspace concentration of 1-MCP: 9,850 ppm (v/v)
[2]; 3.0 g H2O
  Headspace concentration of 1-MCP: 10,610 ppm (v/v)
[2]; 1.0 grams of water per 0.10 grams 1-MCP/c/α-CD
  1-MCP dissociated from complex: 66%
[2]; polynomial regression of the five samples of Table 6, 4.3 milligrams water per 250 mL volume
  calculated amount of dissociated 1-MCP at 100% RH: 18 wt-%
[2]; supplier's specification sheet 4.7 wt % 1-MCP, 0.1 g in 250 mL bottle
  resulting headspace concentration corresponding to supplier's specification: 8,600 ppm
[3]; 0.17 hours
  Headspace concentration of 1-MCP: 0.16 ppm (v/v)
[3]; 0.5 hours
  Headspace concentration of 1-MCP: 0.63 ppm (v/v)
[3]; 1 hour
  Headspace concentration of 1-MCP: 1.6 ppm (v/v)
[3]; 2 hours
  Headspace concentration of 1-MCP: 3.6 ppm (v/v)
[3]; 4 hours
  Headspace concentration of 1-MCP: 7.3 ppm (v/v)
[3]; 7 hours
  Headspace concentration of 1-MCP: 12.5 ppm (v/v)
